Literature values in US8703719B1, “Method and composition for improved muscle performance” (Bio-Engineered Supplements and Nutrition, Inc., priority 2009, dated 2014).

Details: oral; weight training individuals

Q: For `C[N+](C)(C)CC(=O)[O-]` [trimethylglycine (betaine), Trimethylglycine], which “increase in bench-throw power compared with placebo” value is on record?
A: 16%

Q: And the “increase in isometric bench-press force compared with placebo” value?
A: 28%
